The text below walks through data of US8735584B2 (Merck Patent GmbH, priority 2008, dated 2014).

For the assay, the target named is T1, GST-Aurora A (Homo sapiens, UniProt O14965).
T1 construct: N-terminal GST fusion with full length Aurora A (1-403 amino acids); purchased Carna Biosciences 05-101
T1 sequence (O14965 1-403): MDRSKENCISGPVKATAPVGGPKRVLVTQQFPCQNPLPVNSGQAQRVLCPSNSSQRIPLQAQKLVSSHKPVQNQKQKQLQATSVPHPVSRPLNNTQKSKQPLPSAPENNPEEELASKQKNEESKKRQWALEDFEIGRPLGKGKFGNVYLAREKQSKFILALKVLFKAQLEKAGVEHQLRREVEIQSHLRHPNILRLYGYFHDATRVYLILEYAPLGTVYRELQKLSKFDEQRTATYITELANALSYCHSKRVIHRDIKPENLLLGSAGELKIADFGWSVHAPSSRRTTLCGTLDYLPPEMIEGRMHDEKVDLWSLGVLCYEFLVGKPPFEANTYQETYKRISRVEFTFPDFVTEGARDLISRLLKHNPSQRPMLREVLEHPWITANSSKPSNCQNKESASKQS
Description: Aurora A IC50, Caliper LC3000 mobility shift assay. Particulars: LC3000 method; 15 uM ATP (the KM value); read-out: Aurora Kinase A Activity (IC50). In kind it is biochemical. The essentials: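 Readout: percent conversion of FITC-LRRASLG (1 uM) to phosphopeptide, resolved electrophoretically on a Caliper LC3000, fitted against inhibitor concentration for IC50. Reaction: N-terminal GST full-length Aurora A, ATP at its KM (15 uM), pH 7.5 HEPES with MgCl2/DTT, 25 C for 90 min.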
Regarding `O=C(Nc1ccccc1)C1(CNc2ccnc3[nH]c(=O)c4ccccc4c23)CC1` [Compound 363, 1-((6-Oxo-5,6-dihydrobenzo[c][1,8]naphthyridin-1-ylamino)methyl)-N-phenylcyclopropanecarboxamide], the half-inhibitory concentration (IC50) was over 100 nM. Next, `O=C(Nc1ccc(Nc2ccnc3[nH]c(=O)c4ccc(F)cc4c23)cc1)c1ccccc1` [Compound 412, N-[4-(9-Fluoro-6-oxo-5,6-dihydro-benzo[c][1,8]naphthyridin-1-ylamino)-phenyl]-benzamide]: under 11 nM. As to `O=C(Nc1ccc(Nc2ccnc3[nH]c(=O)c4cc(Cl)ccc4c23)cc1)c1ccccc1` [Compound 275, N-(4-(8-Chloro-6-oxo-5,6-dihydrobenzo[c][1,8]naphthyridin-1-ylamino)phenyl)benzamide], the IC50 fell in the range of 11 to 100 nM. Next, `Cn1ccc(-c2ccc(Nc3ccnc4[nH]c(=O)c5ccccc5c34)cc2)n1` [Compound 335, 1-(4-(1-Methyl-1H-pyrazol-3-yl)phenylamino)benzo[c][1,8]naphthyridin-6(5H)-one]: over 100 nM; `O=C(Nc1ccc(Nc2ccnc3[nH]c(=O)c4ccccc4c23)cc1)c1ccccc1F` [Compound 380, 2-Fluoro-N-[4-(6-oxo-5,6-dihydro-benzo[c][1,8]naphthyridin-1-ylamino)-phenyl]-benzamide]: under 11 nM; `CNC(=O)Nc1ccc(Nc2ccnc3[nH]c(=O)c4ccccc4c23)cc1` [Compound 342, 1-Methyl-3-(4-(6-oxo-5,6-dihydrobenzo[c][1,8]naphthyridin-1-ylamino)phenyl)urea]: 11 to 100 nM.

For `O=C(Nc1ccc(Nc2ccnc3[nH]c(=O)c4ccccc4c23)cc1)c1cccc(F)c1F` [Compound 432, 2,3-Difluoro-N-[4-(6-oxo-5,6-dihydro-benzo[c][1,8]naphthyridin-1-ylamino)-phenyl]-benzamide], the IC50 was under 11 nM.

Turning to `O=C(O)c1ccc2c(c1)c(=O)[nH]c1nccc(Nc3ccc(NC(=O)c4ccccc4)cc3)c12` [Compound 268, 1-(4-Benzamidophenylamino)-6-oxo-5,6-dihydrobenzo[c][1,8]naphthyridine-8-carboxylic acid], the IC50 is under 11 nM. On to `CN(C)CCNC(=O)c1ccc2c(=O)[nH]c3nccc(Nc4ccc(NC(=O)c5ccc(F)cc5C(F)(F)F)cc4)c3c2c1` [Compound 297, N-(2-(Dimethylamino)ethyl)-1-(4-(4-fluoro-2-(trifluoromethyl)benzamido)phenylamino)-6-oxo-5,6-dihydrobenzo[c][1,8]naphthyridine-9-carboxamide], for which the IC50 is under 11 nM. Next, `O=C(c1ccc(F)c(F)c1)N1CCC(CNc2ccnc3[nH]c(=O)c4ccccc4c23)CC1` [Compound 408, 1-{[1-(3,4-Difluoro-benzoyl)-piperidin-4-ylmethyl]-amino}-5H-benzo[c][1,8]naphthyridin-6-one]: over 100 nM; `O=C(Nc1ccc(Nc2ccnc3[nH]c(=O)c4ccccc4c23)cc1)c1cc(F)cc(C(F)(F)F)c1` [Compound 396, 3-Fluoro-N-[4-(6-oxo-5,6-dihydro-benzo[c][1,8]naphthyridin-1-ylamino)-phenyl]-5-trifluoromethyl-benzamide]: under 11 nM; `O=C(Nc1ccc(Nc2ccnc3[nH]c(=O)c4ccccc4c23)cc1)c1ccc(F)cc1C(F)(F)F` [Compound 378, 4-Fluoro-N-[4-(6-oxo-5,6-dihydro-benzo[c][1,8]naphthyridin-1-ylamino)-phenyl]-2-trifluoromethyl-benzamide]: under 11 nM. Next, `COc1cc2c(=O)[nH]c3nccc(Nc4ccc(Cl)cc4)c3c2cc1OC` [Example 213, 1-(4-Chloro-phenylamino)-8,9-dimethoxy-5H-benzo[c][1,8]naphthyridin-6-one]: 11 to 100 nM; `O=C(Nc1ccc(Nc2ccnc3[nH]c(=O)c4ccccc4c23)cc1)c1cccc(Cl)c1` [Compound 393, 3-Chloro-N-[4-(6-oxo-5,6-dihydro-benzo[c][1,8]naphthyridin-1-ylamino)-phenyl]-benzamide]: under 11 nM; `O=c1[nH]c2ncccc2c2cc(NCc3ccccc3Br)ccc12` [Compound 469, 9-(2-Bromobenzylamino)benzo[c][1,8]naphthyridin-6(5H)-one]: 11 to 100 nM.

For `O=C(Nc1ccc(Nc2ccnc3[nH]c(=O)c4ccccc4c23)cc1)c1ccc(F)c(F)c1` [Compound 384, 3,4-Difluoro-N-[4-(6-oxo-5,6-dihydro-benzo[c][1,8]naphthyridin-1-ylamino)-phenyl]-benzamide], the IC50 was under 11 nM.

Consider `O=C(Cn1cc(Nc2ccnc3[nH]c(=O)c4ccccc4c23)cn1)Nc1ccc(F)cc1` [Compound 430], for which the 50% inhibitory concentration (IC50) was over 100 nM. To `COc1cccc(F)c1C(=O)Nc1ccc(Nc2ccnc3[nH]c(=O)c4ccccc4c23)cc1` [Compound 504, 2-Fluoro-6-methoxy-N-(4-(6-oxo-5,6-dihydrobenzo[c][1,8]naphthyridin-1-ylamino)phenyl)benzamide] belongs under 11 nM. For the compound `O=C(c1cc(F)cc(F)c1)N1CCC(CNc2ccnc3[nH]c(=O)c4ccccc4c23)C1` (centres unmarked) [Compound 362, 1-((1-(3,5-Difluorobenzoyl)pyrrolidin-3-yl)methylamino)benzo[c][1,8]naphthyridin-6(5H)-one], the IC50 was over 100 nM.

Consider `O=C(Nc1ccc(Nc2ccnc3[nH]c(=O)c4c(C(=O)NCCO)cccc4c23)cc1)c1ccccc1` [Compound 438, 1-[4-Benzoylamino-phenylamino)-6-oxo-5,6-dihydro-benzo[c][1,8]naphthyridin-7-carboxylic acid 2-hydroxy ethyl amide], for which the IC50 was under 11 nM. To `CN1CCCC1CCNc1ccc2c(=O)[nH]c3ncccc3c2c1` (centres unmarked) [Compound 475, 9-(2-(1-Methylpyrrolidin-2-yl)ethylamino)benzo[c][1,8]naphthyridin-6(5H)-one] belongs over 100 nM; to `O=C(Nc1ccc(Nc2ccnc3[nH]c(=O)c4c(O)cccc4c23)cc1)c1ccc(F)cc1C(F)(F)F` [Compound 445, 4-Fluoro-N-[4-(7-hydroxy-6-oxo-5,6-dihydro-benzo[c][1,8]naphthyridin-1-ylamino)-phenyl]-2-trifluoromethyl-benzamide], 11 to 100 nM.

Regarding `CCN(Cc1ccccc1)c1ccc2c(=O)[nH]c3ncccc3c2c1` [Compound 449, 9-(Benzyl(ethyl)amino)benzo[c][1,8]naphthyridin-6(5H)-one], the IC50 was over 100 nM. Next, `O=C(Nc1ccc(Nc2ccnc3[nH]c(=O)c4ccccc4c23)cc1)c1ccc(Cl)cc1` [Compound 389, 4-Chloro-N-[4-(6-oxo-5,6-dihydro-benzo[c][1,8]naphthyridin-1-ylamino)-phenyl]-benzamide]: under 11 nM. Next, `CN(C)CCNC(=O)c1ccc2c(=O)[nH]c3nccc(Nc4ccc(NC(=O)c5ccccc5)cc4)c3c2c1` [Compound 285, 1-(4-benzamidophenylamino)-N-(2-(dimethylamino)ethyl)-6-oxo-5,6-dihydrobenzo[c][1,8]naphthyridine-9-carboxamide]: under 11 nM.

With `O=C(Cc1cc(Nc2ccnc3[nH]c(=O)c4ccccc4c23)n[nH]1)Nc1ccccc1` [Compound 315, 2-(3-(6-Oxo-5,6-dihydrobenzo[c][1,8]naphthyridin-1-ylamino)-1H-pyrazol-5-yl)-N-phenylacetamide], the IC50 is over 100 nM.

In general, IC50 refers to the concentration needed to halve the response being measured.
